Tests used:
Type in all cases: in vivo
[1] = tested on: winter barley (Hordeum vulgare); experiment: Test C postemergence
How it was run: (§1)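 Compounds in non-phytotoxic solvent with surfactant applied preemergence to planted seeds and postemergence to plants at 1- to 4-leaf stage (2–18 cm). Kept in greenhouse 12–14 days, then visually rated against controls on a 0 (no effect) to 100 (complete control) scale.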

[2] = tested on: crabgrass (Digitaria sanguinalis); experiment: Test C postemergence
How it was run: as §1

[3] = tested on: johnsongrass (Sorghum halepense); experiment: Test C postemergence
How it was run: as §1

[4] = tested on: woolly cupgrass (Eriochloa villosa); experiment: Test C postemergence
How it was run: as §1

[5] = tested on: pigweed (Amaranthus retroflexus); experiment: Test C postemergence
How it was run: as §1

[6] = tested on: cocklebur (Xanthium strumarium); experiment: Test C postemergence
How it was run: as §1

[7] = tested on: kochia (Kochia scoparia); experiment: Test C postemergence
How it was run: as §1

[8] = tested on: soybean (Glycine max); experiment: Test C postemergence
How it was run: as §1

[9] = tested on: common ragweed (Ambrosia elatior); experiment: Test C postemergence
How it was run: as §1

[10] = tested on: crabgrass (Digitaria spp.); experiment: Test A postemergence, sprayed to runoff; settings: approx. eleven days
Description: (§2) Seeds of barnyardgrass (Echinochloa crus-galli), crabgrass (Digitaria spp.), giant foxtail (Setaria viridis), morning glory (Ipomoea spp.), redroot pigweed (Amaranthus retroflexus) and velvetleaf (Abutilon theophrasti) were planted into a sandy loam soil and treated preemergence by soil drench with test chemicals formulated in a non-phytotoxic solvent mixture which included a surfactant. At the same time, these crop and weed species were also treated postemergence sprayed to runoff with test chemicals formulated in the same manner. Plants ranged in height from two to eighteen cm and were in the one- to two-leaf stage for the postemergence treatment. Treated plants and untreated controls were maintained in a greenhouse for approximately eleven days, after which time all treated plants were compared to untreated controls and visually evaluated for injury. Plant response ratings, summarized in Table A, are based on a 0 to 10 scale where 0 is no effect and 10 is complete control. A dash (-) response means no test results.

[11] = tested on: barnyardgrass (Echinochloa crus-galli); experiment: Test A postemergence, sprayed to runoff; settings: approx. eleven days
Description: as §2

[12] = tested on: redroot pigweed (Amaranthus retroflexus); experiment: Test A postemergence, sprayed to runoff; settings: approx. eleven days
Description: as §2

[13] = tested on: giant foxtail (Setaria viridis); experiment: Test A postemergence, sprayed to runoff; settings: approx. eleven days
Description: as §2

[14] = tested on: velvetleaf (Abutilon theophrasti); experiment: Test A preemergence, soil drench; settings: approx. eleven days
Description: as §2

[15] = tested on: crabgrass (Digitaria spp.); experiment: Test A preemergence, soil drench; settings: approx. eleven days
Description: as §2

[16] = tested on: barnyardgrass (Echinochloa crus-galli); experiment: Test A preemergence, soil drench; settings: approx. eleven days
Description: as §2

[17] = tested on: redroot pigweed (Amaranthus retroflexus); experiment: Test A preemergence, soil drench; settings: approx. eleven days
Description: as §2

[18] = tested on: morning glory (Ipomoea spp.); experiment: Test A preemergence, soil drench; settings: Morningglory, approx. eleven days
Description: as §2

[19] = tested on: giant foxtail (Setaria viridis); experiment: Test A preemergence, soil drench; settings: approx. eleven days
Description: as §2

[20] = Rate 125 g/ha, scale 0 to 100, 0 no effect, 100 complete control
[21] = Rate 500 g/ha, scale 0 to 100 (0 no effect, 100 complete control)
[22] = Rate 250 g/ha, scale 0 to 100 (0 no effect, 100 complete control)

CC1(c2ccn(C3OCN(c4cccc(OC(F)(F)F)c4)C3=O)n2)CC1 (stereo not shown) [Compound 69]
0: Plant response rating, Barley, Winter ([1]; Rate 62 g/ha, scale 0 to 100) | Plant response rating, Barley, Winter [1, 20]
10: Plant response rating, Barley, Winter [1, 21]

CCC(CC)c1ccn(C2OCN(c3cccc(OC(F)(F)F)c3)C2=O)n1 (stereo not shown) [Compound 68]
100: Plant response rating, Pigweed [5, 21]
0: Plant response rating, Crabgrass ([2]; Rate 62 g/ha, scale 0 to 100) | Plant response rating, Crabgrass [2, 20] | Plant response rating, Crabgrass [2, 22] | Plant response rating, Johnsongrass ([3]; Rate 62 g/ha, scale 0 to 100) | Plant response rating, Johnsongrass [3, 20] | Plant response rating, Johnsongrass [3, 22] | Plant response rating, Cupgrass, Woolly ([4]; Rate 62 g/ha, scale 0 to 100) | Plant response rating, Cupgrass, Woolly [4, 20] | Plant response rating, Cupgrass, Woolly [4, 22] | Plant response rating, Cocklebur ([6]; Rate 62 g/ha, scale 0 to 100) | Plant response rating, Cocklebur [6, 20] | Plant response rating, Cocklebur [6, 22] | Plant response rating, Barley, Winter [1, 22] | Plant response rating, Soybean ([8]; Rate 62 g/ha, scale 0 to 100) | Plant response rating, Soybean [8, 20] | Plant response rating, Soybean [8, 22] | Plant response rating, Ragweed, Common ([9]; Rate 62 g/ha, scale 0 to 100) | Plant response rating, Ragweed, Common [9, 20] | Plant response rating, Ragweed, Common [9, 22]
30: Plant response rating, Cupgrass, Woolly [4, 21] | Plant response rating, Ragweed, Common [9, 21]
70: Plant response rating, Pigweed [5, 20] | Plant response rating, Pigweed [5, 22] | Plant response rating, Kochia [7, 20] | Plant response rating, Kochia [7, 22] | Plant response rating, Kochia [7, 21]
60: Plant response rating, Crabgrass [2, 21] | Plant response rating, Pigweed ([5]; Rate 62 g/ha, scale 0 to 100)
20: Plant response rating, Johnsongrass [3, 21] | Plant response rating, Soybean [8, 21]
50: Plant response rating, Cocklebur [6, 21] | Plant response rating, Kochia ([7]; Rate 62 g/ha, scale 0 to 100)

Cc1ccn(C2CCN(c3cccc(C(F)(F)F)c3)C2=O)n1 (stereo not shown) [Compound 16]
80: Plant response rating (visual injury vs untreated controls) ([17]; Rate 500 g/ha) | Plant response rating (visual injury vs untreated controls) ([19]; Rate 500 g/ha)
0: Plant response rating (visual injury vs untreated controls) ([11]; Rate 500 g/ha) | Plant response rating (visual injury vs untreated controls) ([12]; Rate 500 g/ha) | Plant response rating (visual injury vs untreated controls) ([12]; Rate 2000 g/ha) | Plant response rating (visual injury vs untreated controls) ([13]; Rate 500 g/ha) | Plant response rating (visual injury vs untreated controls) ([18]; Rate 500 g/ha)
30: Plant response rating (visual injury vs untreated controls) ([13]; Rate 2000 g/ha)
20: Plant response rating (visual injury vs untreated controls) ([10]; Rate 2000 g/ha) | Plant response rating (visual injury vs untreated controls) ([18]; Rate 2000 g/ha)
70: Plant response rating (visual injury vs untreated controls) ([16]; Rate 2000 g/ha)
90: Plant response rating (visual injury vs untreated controls) ([19]; Rate 2000 g/ha)
10: Plant response rating (visual injury vs untreated controls) ([10]; Rate 500 g/ha) | Plant response rating (visual injury vs untreated controls) ([11]; Rate 2000 g/ha) | Plant response rating (visual injury vs untreated controls) ([14]; Rate 500 g/ha) | Plant response rating (visual injury vs untreated controls) ([16]; Rate 500 g/ha)
100: Plant response rating (visual injury vs untreated controls) ([14]; Rate 2000 g/ha) | Plant response rating (visual injury vs untreated controls) ([15]; Rate 500 g/ha) | Plant response rating (visual injury vs untreated controls) ([15]; Rate 2000 g/ha) | Plant response rating (visual injury vs untreated controls) ([17]; Rate 2000 g/ha)

O=C1C(n2ccc(C3CC3)n2)SCN1c1cccc(C(F)(F)F)c1 (stereo not shown) [Compound 26]
90: Plant response rating (visual injury vs untreated controls) ([11]; Rate 500 g/ha) | Plant response rating (visual injury vs untreated controls) ([11]; Rate 2000 g/ha)
20: Plant response rating (visual injury vs untreated controls) ([10]; Rate 2000 g/ha)
40: Plant response rating (visual injury vs untreated controls) ([12]; Rate 500 g/ha) | Plant response rating (visual injury vs untreated controls) ([14]; Rate 2000 g/ha)
0: Plant response rating (visual injury vs untreated controls) ([18]; Rate 500 g/ha)
100: Plant response rating (visual injury vs untreated controls) ([13]; Rate 2000 g/ha) | Plant response rating (visual injury vs untreated controls) ([15]; Rate 500 g/ha) | Plant response rating (visual injury vs untreated controls) ([15]; Rate 2000 g/ha) | Plant response rating (visual injury vs untreated controls) ([16]; Rate 500 g/ha) | Plant response rating (visual injury vs untreated controls) ([16]; Rate 2000 g/ha) | Plant response rating (visual injury vs untreated controls) ([17]; Rate 500 g/ha) | Plant response rating (visual injury vs untreated controls) ([17]; Rate 2000 g/ha) | Plant response rating (visual injury vs untreated controls) ([19]; Rate 500 g/ha) | Plant response rating (visual injury vs untreated controls) ([19]; Rate 2000 g/ha)
80: Plant response rating (visual injury vs untreated controls) ([12]; Rate 2000 g/ha)
50: Plant response rating (visual injury vs untreated controls) ([13]; Rate 500 g/ha) | Plant response rating (visual injury vs untreated controls) ([14]; Rate 500 g/ha)
30: Plant response rating (visual injury vs untreated controls) ([10]; Rate 500 g/ha) | Plant response rating (visual injury vs untreated controls) ([18]; Rate 2000 g/ha)

Cc1ccc(N2CCC(n3ccc(C(C)(C)C)n3)C2=O)cc1OCCCl (stereo not shown) [Compound 109]
60: Plant response rating, Soybean ([8]; Rate 31 g/ha, scale 0 to 100)
80: Plant response rating, Kochia ([7]; Rate 31 g/ha, scale 0 to 100) | Plant response rating, Kochia ([7]; Rate 62 g/ha, scale 0 to 100)
70: Plant response rating, Pigweed ([5]; Rate 31 g/ha, scale 0 to 100) | Plant response rating, Pigweed ([5]; Rate 62 g/ha, scale 0 to 100) | Plant response rating, Pigweed [5, 22] | Plant response rating, Soybean ([8]; Rate 62 g/ha, scale 0 to 100) | Plant response rating, Soybean [8, 22]
40: Plant response rating, Cocklebur ([6]; Rate 62 g/ha, scale 0 to 100)
0: Plant response rating, Crabgrass ([2]; Rate 31 g/ha, scale 0 to 100) | Plant response rating, Crabgrass ([2]; Rate 62 g/ha, scale 0 to 100) | Plant response rating, Crabgrass [2, 22] | Plant response rating, Johnsongrass ([3]; Rate 31 g/ha, scale 0 to 100) | Plant response rating, Johnsongrass ([3]; Rate 62 g/ha, scale 0 to 100) | Plant response rating, Johnsongrass [3, 22] | Plant response rating, Johnsongrass ([3]; rate not given, scale 0 to 100) | Plant response rating, Cupgrass, Woolly ([4]; Rate 31 g/ha, scale 0 to 100) | Plant response rating, Cupgrass, Woolly ([4]; Rate 62 g/ha, scale 0 to 100) | Plant response rating, Cupgrass, Woolly [4, 22] | Plant response rating, Cocklebur ([6]; Rate 31 g/ha, scale 0 to 100) | Plant response rating, Barley, Winter [1, 22] | Plant response rating, Ragweed, Common ([9]; Rate 31 g/ha, scale 0 to 100) | Plant response rating, Ragweed, Common ([9]; Rate 62 g/ha, scale 0 to 100)
90: Plant response rating, Kochia [7, 22]

From patent US7138361B2, “Herbicidal heterocycles” (E. I. du Pont de Nemours and Company, priority 2000, dated 2006)
